These results are taken from patent US9133181B2, “Substituted 6-(4-hydroxy-phenyl)-1H-pyrazolo[3,4-b]pyridine derivatives as kinase inhibitors” (SANOFI, priority 2012, dated 2015).

Each structure is given as a SMILES string.

The target in this assay is T1, human full-length recombinant PKC βII (Homo sapiens, UniProt P05771).
T1 construct: Active human full-length recombinant PKC βII; purchased Invitrogen GmbH, Darmstadt, Germany
T1 sequence (P05771 1-673 isoform P05771-2): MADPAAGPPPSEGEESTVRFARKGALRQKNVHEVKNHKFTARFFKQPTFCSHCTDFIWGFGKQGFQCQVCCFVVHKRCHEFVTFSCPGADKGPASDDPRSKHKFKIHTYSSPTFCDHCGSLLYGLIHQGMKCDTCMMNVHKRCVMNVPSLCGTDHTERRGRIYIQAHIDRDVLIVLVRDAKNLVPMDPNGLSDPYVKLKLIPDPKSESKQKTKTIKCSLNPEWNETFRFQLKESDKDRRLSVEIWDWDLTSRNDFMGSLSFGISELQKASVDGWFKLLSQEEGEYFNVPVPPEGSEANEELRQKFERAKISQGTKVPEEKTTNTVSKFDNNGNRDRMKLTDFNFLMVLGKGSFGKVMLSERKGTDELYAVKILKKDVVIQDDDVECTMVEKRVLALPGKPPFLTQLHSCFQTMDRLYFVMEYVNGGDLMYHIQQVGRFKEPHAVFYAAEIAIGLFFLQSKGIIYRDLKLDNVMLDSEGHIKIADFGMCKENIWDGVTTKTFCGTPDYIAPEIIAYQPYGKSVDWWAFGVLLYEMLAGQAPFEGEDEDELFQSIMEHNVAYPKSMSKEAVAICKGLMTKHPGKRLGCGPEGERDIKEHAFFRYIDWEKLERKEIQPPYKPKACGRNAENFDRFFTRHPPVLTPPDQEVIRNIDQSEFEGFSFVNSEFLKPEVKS
Description: Determination of PKC βII inhibition (Caliper mobility shift kinase assay). The assay is classed as biochemical. Conditions: final compound concentration 1.14 μM (±0.15 μM); 60 min incubation at 32° C. A digest of the protocol: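 Compound was tested at a final 1.14 µM (±0.15 µM), with % inhibition derived from the product/(substrate+product) peak ratio on a Caliper mobility-shift read-out. Full-length PKC βII was activated by CaCl2, PS and DAG in pH 7.4 Hepes/MgCl2. Peptide and ATP were at 3 µM and 120 µM in the added mix. Incubation was 60 min at 32 °C.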
A word on the inhibition: it is the drop in the measured response relative to a control, in per cent. With `Cc1n[nH]c2nc(-c3ccc(O)cc3)cc(CN(C)C3CCNC3)c12` (stereo not shown) [Example 94, 4-{3-Methyl-4-[(methyl-pyrrolidin-3-yl-amino)-methyl]-1H-pyrazolo[3,4-b]pyridin-6-yl}-phenol], the inhibition at 1.14 µM is 92%.

Turning to `Cc1n[nH]c2nc(-c3ccc(O)cc3F)cc(CN3CCC[C@@](C)(N)C3)c12` [Example 148, 4-[4-((R)-3-Amino-3-methyl-piperidin-1-ylmethyl)-3-methyl-1H-pyrazolo[3,4-b]pyridin-6-yl]-3-fluoro-phenol], the inhibition at 1.14 µM was determined as 99%.

Take `CCC1CNC(C)(C)CN1Cc1cc(-c2ccc(O)cc2F)nc2[nH]nc(C)c12` (stereo not shown) [Example 39, 4-[4-(2-Ethyl-5,5-dimethyl-piperazin-1-ylmethyl)-3-methyl-1H-pyrazolo[3,4-b]pyridin-6-yl]-3-fluoro-phenol]: the inhibition at 1.14 µM is 100%.

For `Cc1n[nH]c2nc(-c3ccc(O)cc3F)cc(CN3C[C@@H](C)NC[C@H]3C(F)(F)F)c12` [Example 153, 3-Fluoro-4-[3-methyl-4-((2S,5R)-5-methyl-2-trifluoromethyl-piperazin-1-ylmethyl)-1H-pyrazolo[3,4-b]pyridin-6-yl]-phenol], the inhibition at 1.14 µM is 97%.

On to `Cc1n[nH]c2nc(-c3ccc(O)cc3F)cc(CN3CCNCC3C(F)(F)F)c12` (stereo not shown) [Example 5, 3-Fluoro-4-[3-methyl-4-(2-trifluoromethyl-piperazin-1-ylmethyl)-1H-pyrazolo[3,4-b]pyridin-6-yl]-phenol], for which the inhibition at 1.14 µM was 109%.

Turning to `CCC1(CC)CNC(C)(C)CN1Cc1cc(-c2ccc(O)cc2)nc2[nH]nc(C)c12` [Example 51, 4-[4-(2,2-Diethyl-5,5-dimethyl-piperazin-1-ylmethyl)-3-methyl-1H-pyrazolo[3,4-b]pyridin-6-yl]-phenol], the inhibition at 1.14 µM stood at 98%.

As to `COCCCN1CC(C)(C)N(Cc2cc(-c3ccc(O)cc3)nc3[nH]nc(C)c23)CC1C` (stereo not shown) [Example 64, 4-{4-[4-(3-Methoxy-propyl)-2,2,5-trimethyl-piperazin-1-ylmethyl]-3-methyl-1H-pyrazolo[3,4-b]pyridin-6-yl}-phenol], the inhibition at 1.14 µM came to 94%.

Turning to `Cc1n[nH]c2nc(-c3ccc(O)cc3F)cc(CN3CCNCC34CCC4)c12` [Example 17, 4-[4-(5,8-Diaza-spiro[3.5]non-5-ylmethyl)-3-methyl-1H-pyrazolo[3,4-b]pyridin-6-yl]-3-fluoro-phenol], the inhibition at 1.14 µM was found to be 98%.

In the case of `Cc1n[nH]c2nc(-c3ccc(O)cc3F)cc(CN3CCNCC34CCCC4)c12` [Example 7, 4-[4-(6,9-Diaza-spiro[4.5]dec-6-ylmethyl)-3-methyl-1H-pyrazolo[3,4-b]pyridin-6-yl]-3-fluoro-phenol], the inhibition at 1.14 µM amounted to 103%.

On to `Cc1n[nH]c2nc(-c3ccc(O)cc3F)cc(CN3CCNC[C@H]3c3ccc(F)cc3)c12` [Example 106, 3-Fluoro-4-{4-[(R)-2-(4-fluoro-phenyl)-piperazin-1-ylmethyl]-3-methyl-1H-pyrazolo[3,4-b]pyridin-6-yl}-phenol], for which the inhibition at 1.14 µM was found to be 104%.

Consider `CC[C@@H]1CNC(C)(C)CN1Cc1cc(-c2ccc(O)cc2)nc2[nH]nc(C)c12` [Example 146, 4-[4-((R)-2-Ethyl-5,5-dimethyl-piperazin-1-ylmethyl)-3-methyl-1H-pyrazolo[3,4-b]pyridin-6-yl]-phenol], for which the inhibition at 1.14 µM amounted to 99%.

Turning to `COC(=O)CN1CC(C)(C)N(Cc2cc(-c3ccc(O)cc3)nc3[nH]nc(C)c23)CC1(C)C` [Example 86, {4-[6-(4-Hydroxy-phenyl)-3-methyl-1H-pyrazolo[3,4-b]pyridin-4-ylmethyl]-2,2,5,5-tetramethyl-piperazin-1-yl}-acetic acid methyl ester], the inhibition at 1.14 µM came out at 86%.

As for `CCC1(C)CNC(C)(C)CN1Cc1cc(-c2ccc(O)cc2F)nc2[nH]nc(C)c12` (stereo not shown) [Example 31, 4-[4-(2-Ethyl-2,5,5-trimethyl-piperazin-1-ylmethyl)-3-methyl-1H-pyrazolo[3,4-b]pyridin-6-yl]-3-fluoro-phenol], the inhibition at 1.14 µM was 101%.

One may read the % Inhibition as the share of the control response that was lost under treatment. Consider `Cc1n[nH]c2nc(-c3ccc(O)cc3)cc(CN3C[C@@H](C)NC[C@@H]3c3ccccc3)c12` (relative stereo) [Example 43, 4-[3-Methyl-4-(trans-5-methyl-2-phenyl-piperazin-1-ylmethyl)-1H-pyrazolo[3,4-b]pyridin-6-yl]-phenol], for which the “% Inhibition” value is listed as 58%.

Regarding `Cc1n[nH]c2nc(-c3ccc(O)cc3F)cc(CN3CCNCC3c3ccccc3)c12` (stereo not shown) [Example 1, 3-Fluoro-4-[3-methyl-4-(2-phenyl-piperazin-1-ylmethyl)-1H-pyrazolo[3,4-b]pyridin-6-yl]-phenol], the inhibition at 1.14 µM was found to be 95%.

For the compound `CCC1(CC)CNCCN1Cc1cc(-c2ccc(O)cc2F)nc2[nH]nc(C)c12` [Example 18, 4-[4-(2,2-Diethyl-piperazin-1-ylmethyl)-3-methyl-1H-pyrazolo[3,4-b]pyridin-6-yl]-3-fluoro-phenol], the inhibition at 1.14 µM was determined as 98%.

With `Cc1n[nH]c2nc(-c3ccc(O)cc3F)cc(CN3CCNC[C@H]3c3ccc(C(F)(F)F)cc3)c12` [Example 104, 3-Fluoro-4-{3-methyl-4-[(R)-2-(4-trifluoromethyl-phenyl)-piperazin-1-ylmethyl]-1H-pyrazolo[3,4-b]pyridin-6-yl}-phenol], the inhibition at 1.14 µM is 83%.

For the compound `Cc1n[nH]c2nc(-c3ccc(O)cc3)cc(CN3C[C@@H](C)NC[C@@H]3c3ccccc3)c12` [Example 111, 4-[3-Methyl-4-((2S,5R)-5-methyl-2-phenyl-piperazin-1-ylmethyl)-1H-pyrazolo[3,4-b]pyridin-6-yl]-phenol], the “% Inhibition” value was 88%.

For the compound `Cc1n[nH]c2nc(-c3ccc(O)cc3)cc(CN3CC(C)NCC3(C)C)c12` (stereo not shown) [Example 48, 4-[3-Methyl-4-(2,2,5-trimethyl-piperazin-1-ylmethyl)-1H-pyrazolo-[3,4-b]pyridin-6-yl]-phenol], the inhibition at 1.14 µM amounted to 99%.

As to `Cc1n[nH]c2nc(-c3ccc(O)cc3F)cc(CN3CCNC[C@]3(C)c3ccccc3)c12` [Example 117, 3-Fluoro-4-[3-methyl-4-((S)-2-methyl-2-phenyl-piperazin-1-ylmethyl)-1H-pyrazolo[3,4-b]pyridin-6-yl]-phenol], the inhibition at 1.14 µM was 99%.

For the compound `Cc1n[nH]c2nc(-c3ccc(O)cc3)cc(CN3C[C@H](C)NC[C@H]3c3ccccc3)c12` [Example 112, 4-[3-Methyl-4-((2R,5S)-5-methyl-2-phenyl-piperazin-1-ylmethyl)-1H-pyrazolo[3,4-b]pyridin-6-yl]-phenol], the inhibition at 1.14 µM was 85%.

As for `Cc1n[nH]c2nc(-c3ccc(O)cc3F)cc(CN3CC(C)(C)N(CCC4CCOCC4)CC3(C)C)c12` [Example 68, 3-Fluoro-4-(3-methyl-4-{2,2,5,5-tetramethyl-4-[2-(tetrahydro-pyran-4-yl)-ethyl]-piperazin-1-ylmethyl}-1H-pyrazolo[3,4-b]pyridin-6-yl)-phenol], the inhibition at 1.14 µM came to 101%.

For `Cc1n[nH]c2nc(-c3ccc(O)cc3)cc(CN3C[C@@H](C)NC[C@@H]3C)c12` [Example 54, 4-[4-((2S,5R)-2,5-Dimethyl-piperazin-1-ylmethyl)-3-methyl-1H-pyrazolo[3,4-b]pyridin-6-yl]-phenol], the inhibition at 1.14 µM was 98%.

`CC[C@@]1(C)CNC(C)(C)CN1Cc1cc(-c2ccc(O)cc2)nc2[nH]nc(C)c12` [Example 142, 4-[4-((S)-2-Ethyl-2,5,5-trimethyl-piperazin-1-ylmethyl)-3-methyl-1H-pyrazolo[3,4-b]pyridin-6-yl]-phenol]: the inhibition at 1.14 µM came out at 100%.

With `Cc1n[nH]c2nc(-c3ccc(O)cc3F)cc(CN3CCNC[C@@]3(C)c3ccccc3)c12` [Example 118, 3-Fluoro-4-[3-methyl-4-((R)-2-methyl-2-phenyl-piperazin-1-ylmethyl)-1H-pyrazolo[3,4-b]pyridin-6-yl]-phenol], the inhibition at 1.14 µM was determined as 84%.

For the compound `Cc1n[nH]c2nc(-c3ccc(O)cc3)cc(CNC3CCNCC3(C)C)c12` (stereo not shown) [Example 60, 4-{4-[(3,3-Dimethyl-piperidin-4-ylamino)-methyl]-3-methyl-1H-pyrazolo[3,4-b]pyridin-6-yl}-phenol], the inhibition at 1.14 µM is 92%.

As to `Cc1n[nH]c2nc(-c3ccc(O)cc3)cc(CN3CC4(CCCC4)NCC3C)c12` (stereo not shown) [Example 33, 4-[3-Methyl-4-(8-methyl-6,9-diaza-spiro[4.5]dec-9-ylmethyl)-1H-pyrazolo[3,4-b]pyridin-6-yl]-phenol], the inhibition at 1.14 µM was determined as 93%.

Consider `Cc1n[nH]c2nc(-c3ccc(O)cc3)cc(CN3CC(C)N(Cc4cccnc4)CC3(C)C)c12` (stereo not shown) [Example 61, 4-[3-Methyl-4-(2,2,5-trimethyl-4-pyridin-3-ylmethyl-piperazin-1-ylmethyl)-1H-pyrazolo[3,4-b]pyridin-6-yl]-phenol], for which the inhibition at 1.14 µM came to 84%.

Regarding `CCNC(=O)N1CCCN(Cc2cc(-c3ccc(O)cc3F)nc3[nH]nc(C)c23)CC1C` (stereo not shown) [Example 89, 4-[6-(2-Fluoro-4-hydroxy-phenyl)-3-methyl-1H-pyrazolo[3,4-b]pyridin-4-ylmethyl]-2-methyl-[1,4]diazepane-1-carboxylic acid ethylamide], the inhibition at 1.14 µM is 76%.

As for `Cc1n[nH]c2nc(-c3ccc(O)cc3F)cc(CN3CC(C(C)C)NCC3(C)C)c12` (stereo not shown) [Example 20, 3-Fluoro-4-[4-(5-isopropyl-2,2-dimethyl-piperazin-1-ylmethyl)-3-methyl-1H-pyrazolo[3,4-b]pyridin-6-yl]-phenol], the inhibition at 1.14 µM is 98%.

As to `Cc1n[nH]c2nc(-c3ccc(O)cc3F)cc(CN3CCNC[C@H]3c3ccc(C(C)C)cc3)c12` [Example 102, 3-Fluoro-4-{4-[(R)-2-(4-isopropyl-phenyl)-piperazin-1-ylmethyl]-3-methyl-1H-pyrazolo[3,4-b]pyridin-6-yl}-phenol], the inhibition at 1.14 µM came out at 85%.
